Measurements published in US20170275270A1, “BENZYL SUBSTITUTED INDAZOLES” (Bayer Pharma Aktiengesellschaft, priority 2014, published 2017).
Structures can show the parent of a compound that is named as a salt.

What follows are compounds tested against T1, catalytic domain of human Bub1 (amino acids 704-1085) (Homo sapiens, UniProt O43683) (assay: Bub1 kinase assay (TR-FRET)). Conditions: 10 μM ATP, read-out: Biological Assay 1: Bub1 kinase assay median IC50.
T1 construct: catalytic domain of human Bub1 (amino acids 704-1085); His6 (N); made in house; host or cells: Hi5 insect cells
Type: biochemical
Description: To this end, 100-fold concentrated compound solutions (in DMSO) were previously prepared by serial dilution (1:3.4) of 2 mM stocks in a clear low volume 384-well source microtiter plate (Greiner Bio-One, Frickenhausen, Germany), from which 50 nL of compounds were transferred into a black low volume test microtiter plate from the same supplier. […] The resulting mixture (5 μL final volume) was incubated at 22° C. during 60 min., and the reaction was stopped by the addition of 5 μL of an aqueous EDTA-solution (50 mM EDTA, in 100 mM HEPES pH 7.5 and 0.2% (w/v) bovine serum albumin) which also contained the TR-FRET detection reagents (0.2 μM streptavidin-XL665 [Cisbio Bioassays, Codolet, France] and 1 nM anti-phosho-Serine antibody [Merck Millipore, cat. #35-001] and 0.4 nM LANCE EU-W1024 labeled anti-mouse IgG antibody [Perkin-Elmer, product no. AD0077, alternatively a Terbium-cryptate-labeled anti-mouse IgG antibody from Cisbio Bioassays can be used]). The stopped reaction mixture was further incubated 1 h at 22° C. in order to allow the formation of complexes between peptides and detection reagents. Subsequently, the amount of product was evaluated by measurement of the resonance energy transfer from the Eu-chelate-antibody complex recognizing the Phosphoserine residue to the streptavidin-XL665 bound to the biotin moiety of the peptide. […] IC50 values were calculated by fitting the normalized inhibition data to a 4-parameter logistic equation (Minimum, Maximum, IC50, Hill; Y=Max+(Min−Max)/(1+(X/IC50) Hill)).

T1 sequence (O43683 704-1085): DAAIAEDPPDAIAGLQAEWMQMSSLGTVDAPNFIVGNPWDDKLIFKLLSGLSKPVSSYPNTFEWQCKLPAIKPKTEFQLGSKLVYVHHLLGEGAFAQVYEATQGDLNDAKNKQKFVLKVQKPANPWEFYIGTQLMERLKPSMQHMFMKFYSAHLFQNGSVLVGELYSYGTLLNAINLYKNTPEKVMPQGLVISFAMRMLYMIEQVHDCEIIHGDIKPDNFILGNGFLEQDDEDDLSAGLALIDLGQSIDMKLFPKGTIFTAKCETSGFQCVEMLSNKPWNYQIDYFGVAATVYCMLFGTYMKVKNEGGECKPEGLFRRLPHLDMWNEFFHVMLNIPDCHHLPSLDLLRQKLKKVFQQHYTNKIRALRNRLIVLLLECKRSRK

| IC50 | Compound |
| --- | --- |
| 0.0088 µM | COCc1cc(Nc2ccncc2OC)nc(-c2nn(Cc3c(F)cc(OCCO)cc3F)c3ccccc23)n1 [Example 2-12-49, 2-{3,5-difluoro-4-[(3-{4-(methoxymethyl)-6-[(3-methoxypyridin-4-yl)amino]pyrimidin-2-yl}-1H-indazol-1-yl)methyl]phenoxy}eth-anol] |
| 0.049 µM | CCOc1cc(F)c(Cn2nc(-c3ncc(CC4CNC4)c(Nc4ccnc(C)n4)n3)c3ccccc32)c(F)c1 [Example 2-9-20, 5-(azetidin-3-ylmethyl)-2-[1-(4-ethoxy-2,6-difluorobenzyl)-1H-indazol-3-yl]-N-(2-methylpyrimidin-4-yl)pyrimidin-4-amine, salt with hydrochloric acid] |
| 0.0087 µM | COCCOc1cc(F)c(Cn2nc(-c3ncc(C)c(Nc4ccncc4OC)n3)c3ccccc32)c(F)c1 [Example 2-2-47, 2-{1-[2,6-difluoro-4-(2-methoxyethoxy)benzyl]-1H-indazol-3-yl}-N-(3-methoxypyridin-4-yl)-5-methylpyrimidin-4-amine] |
| 0.18 µM | COCCOc1cc(F)c(Cn2nc(-c3nc(Nc4cc(C)ncc4C)cc(C(C)C)n3)c3ccccc32)c(F)c1 [Example 2-12-74, 2-{1-[2,6-difluoro-4-(2-methoxyethoxy)benzyl]-1H-indazol-3-yl}-N-(2,5-dimethylpyridin-4-yl)-6-isopropylpyrimidin-4-amine] |

Same assay, conditions: Biological Assay 1: Bub1 kinase assay median IC50, 10 μM ATP

| IC50 | Compound |
| --- | --- |
| 0.1 µM | CCOc1cc(F)c(Cn2nc(-c3nc4c(c(Nc5ccnc(C)c5)n3)COC4)c3ccccc32)c(F)c1 [Example 2-19-16, 2-[1-(4-ethoxy-2,6-difluorobenzyl)-1H-indazol-3-yl]-N-(2-methylpyridin-4-yl)-5,7-dihydrofuro[3,4-d]pyrimidin-4-amine] |
| 0.21 µM | Cc1nccc(Nc2nc(-c3nn(Cc4c(F)cc(OCCO)cc4F)c4ccccc34)nc(C)c2F)n1 [Example 2-6-32, 2-{3,5-difluoro-4-[(3-{5-fluoro-4-methyl-6-[(2-methylpyrimidin-4-yl)amino]pyrimidin-2-yl}-1H-indazol-1-yl)methyl]phenoxy}ethanol] |
| 0.0063 µM | COCCOc1cc(F)c(Cn2nc(-c3ncc(C4CCNCC4)c(Nc4ccnc(NC(C)=O)c4)n3)c3ccccc32)c(F)c1 [Example 2-17-8, N-(4-{[2-{1-[2,6-difluoro-4-(2-methoxyethoxy)benzyl]-1H-indazol-3-yl}-5-(piperidin-4-yl)pyrimidin-4-yl]amino}pyridin-2-yl)acetamide] |
| 0.46 µM | CCOc1cc(F)c(Cn2nc(-c3nc4c(c(Nc5ccnc(C(F)F)c5)n3)CS(=O)(=O)C4)c3ccccc32)c(F)c1 [Example 2-19-14, N-[2-(difluoromethyl)pyridin-4-yl]-2-[1-(4-ethoxy-2,6-difluorobenzyl)-1H-indazol-3-yl]-5,7-dihydrothieno[3,4-d]pyrimidin-4-amine 6,6-dioxide] |
| 0.034 µM | COCCOc1cc(F)c(Cn2nc(-c3nc4c(c(Nc5cc(C)ncc5C)n3)CN(CC(F)(F)F)C4)c3ccccc32)c(F)c1 [Example 2-20-17, 2-{1-[2,6-difluoro-4-(2-methoxyethoxy)benzyl]-1H-indazol-3-yl}-N-(2,5-dimethylpyridin-4-yl)-6-(2,2,2-trifluoroethyl)-6,7-dihydro-5H-pyrrolo[3,4-d]pyrimidin-4-amine] |
| 0.67 µM | COCCOc1cc(F)c(Cn2nc(-c3nc(Nc4ccnc(C)n4)cc(C(C)C)n3)c3ccccc32)c(F)c1 [Example 2-12-72, 2-{1-[2,6-difluoro-4-(2-methoxyethoxy)benzyl]-1H-indazol-3-yl}-6-isopropyl-N-(2-methylpyrimidin-4-yl)pyrimidin-4-amine] |
| 0.084 µM | Cc1cc(Nc2nc(-c3nn(Cc4c(F)cc(OCCO)cc4F)c4ccccc34)nc3c2CCC(C)(C)C3)c(C)cn1 [Example 2-6-43, 2-{4-[(3-{4-[(2,5-dimethylpyridin-4-yl)amino]-7,7-dimethyl-5,6,7,8-tetrahydroquin-azolin-2-yl}-1H-indazol-1-yl)methyl]-3,5-difluorophenoxy} ethanol] |
| 2.3 µM | CCOc1cc(F)c(Cn2nc(-c3nc(Nc4ccnc(C)n4)cc(-c4sc(C)nc4C)n3)c3ccccc32)c(F)c1 [Example 2-12-84, 6-(2,4-dimethyl-1,3-thiazol-5-yl)-2-[1-(4-ethoxy-2,6-difluorobenzyl)-1H-indazol-3-yl]-N-(2-methylpyrimidin-4-yl)pyrimidin-4-amine] |
| 0.042 µM | COc1cnccc1Nc1nc(-c2nn(Cc3c(F)cc(OCCO)cc3F)c3ccccc23)nc2c1CCC(C)(C)C2 [Example 2-6-26, 2-{3,5-difluoro-4-[(3-{4-[(3-methoxypyridin-4-yl)amino]-7,7-dimethyl-5,6,7,8-tetrahydroquin-azolin-2-yl}-1H-indazol-1-yl)methyl]phenoxy}ethanol] |
| 0.01 µM | CCOc1cc(F)c(Cn2nc(-c3ncc(CNC=O)c(Nc4ccncc4)n3)c3ccccc32)c(F)c1 [Example 2-2-8, N-({2-[1-(4-ethoxy-2,6-difluorobenzyl)-1H-indazol-3-yl]-4-(pyridin-4-ylamino)pyrimidin-5-yl}methyl)formamide] |
| 0.0077 µM | Cc1cnccc1Nc1nc(-c2nn(Cc3c(F)cc(O)cc3F)c3ccccc23)nc2c1CCC2 [Example 2-6-5, 3,5-difluoro-4-[(3-{4-[(3-methylpyridin-4-yl)amino]-6,7-dihydro-5H-cyclopenta[d]pyrimidin-2-yl}-1H-indazol-1-yl)methyl]phenol] |
| 0.21 µM | CCOc1cc(F)c(Cn2nc(-c3ncc(CC4CN(CC(F)(F)F)C4)c(Nc4ccnc(NC(C)=O)c4)n3)c3ccccc32)c(F)c1 [Example 2-11-4, N-{4-[(2-[1-(4-ethoxy-2,6-difluorobenzyl)-1H-indazol-3-yl]-5-{[1-(2,2,2-trifluoroeth-yl)azetidin-3-yl]methyl}pyrimidin-4-yl)amino]pyr-idin-2-yl}acetamide] |
| 0.29 µM | COCCOc1cc(F)c(Cn2nc(-c3ncc(C4CCN(CC(F)(F)F)CC4)c(Nc4ccnc(C)n4)n3)c3ccccc32)c(F)c1 [Example 2-20-10, 2-{1-[2,6-difluoro-4-(2-methoxyethoxy)benzyl]-1H-indazol-3-yl}-N-(2-methylpyrimidin-4-yl)-5-[1-(2,2,2-trifluoroethyl)piperidin-4-yl]pyrimidin-4-amine] |
| 0.0089 µM | CCOc1cc(F)c(Cn2nc(-c3ncc(CS(C)(=O)=O)c(Nc4ccncc4)n3)c3ccccc32)c(F)c1 [Example 2-3-3, 2-[1-(4-ethoxy-2,6-difluorobenzyl)-1H-indazol-3-yl]-5-[(methylsulfonyl)methyl]-N-(pyridin-4-yl)pyrimidin-4-amine] |
| 0.025 µM | CCOc1cc(F)c(Cn2nc(-c3nc4c(c(Nc5ccncc5C)n3)CSC4)c3ccccc32)c(F)c1 [Example 2-19-2, 2-[1-(4-ethoxy-2,6-difluorobenzyl)-1H-indazol-3-yl]-N-(3-methylpyridin-4-yl)-5,7-dihydrothieno[3,4-d]pyrimidin-4-amine] |
| 0.063 µM | COCCOc1cc(F)c(Cn2nc(-c3ncc(C4CCN(CC(F)F)CC4)c(Nc4ccnc(C)n4)n3)c3ccccc32)c(F)c1 [Example 2-20-11, 5-[1-(2,2-difluoroethyl)piperidin-4-yl]-2-{1-[2,6-difluoro-4-(2-methoxyethoxy)benzyl]-1H-indazol-3-yl}-N-(2-methylpyrimidin-4-yl)pyrimidin-4-amine] |
| 0.015 µM | CCOc1cc(F)c(Cn2nc(-c3ncc(CCCN4CCOCC4)c(Nc4ccncc4)n3)c3ccccc32)c(F)c1 [Example 2-2-13, 2-[1-(4-ethoxy-2,6-difluorobenzyl)-1H-indazol-3-yl]-5-[3-(morpholin-4-yl)propyl]-N-(pyridin-4-yl)pyrimidin-4-amine] |
| 0.028 µM | COCCOc1cc(F)c(Cn2nc(-c3nc4c(c(Nc5ccncn5)n3)CN(CC(F)(F)F)C4)c3ccccc32)c(F)c1 [Example 2-20-18, 2-{1-[2,6-difluoro-4-(2-methoxyethoxy)benzyl]-1H-indazol-3-yl}-N-(pyrimidin-4-yl)-6-(2,2,2-trifluoroethyl)-6,7-dihydro-5H-pyrrolo[3,4-d]pyrimidin-4-amine] |
| 0.058 µM | CCOc1cc(F)c(Cn2nc(-c3ncc(CCCCN4CC(F)(F)C4)c(Nc4ccncc4)n3)c3ccccc32)c(F)c1 [Example 2-2-20, 5-[4-(3,3-difluoroazetidin-1-yl)butyl]-2-[1-(4-ethoxy-2,6-difluorobenzyl)-1H-indazol-3-yl]-N-(pyridin-4-yl)pyrimidin-4-amine] |
| 0.014 µM | CC(=O)Nc1cc(Nc2nc(-c3nn(Cc4c(F)cc(OCCO)cc4F)c4ccccc34)nc3c2CCC(C)(C)C3)ccn1 [Example 2-6-42, N-{4-[(2-{1-[2,6-difluoro-4-(2-hydroxyethoxy)benzyl]-1H-indazol-3-yl}-7,7-dimethyl-5,6,7,8-tetrahydroquin-azolin-4-yl)amino]pyridin-2-yl}acetamide] |
| 0.094 µM | CCOc1cc(F)c(Cn2nc(-c3nc(CN4CCOCC4)cc(Nc4ccnc(OC)c4)n3)c3ccccc32)c(F)c1 [Example 2-19-10, 2-[1-(4-ethoxy-2,6-difluorobenzyl)-1H-indazol-3-yl]-N-(2-methoxypyridin-4-yl)-6-(morpholin-4-ylmethyl)pyrimidin-4-amine] |
